Results taken from patent US20070244006A1, “Fungicidal Mixtures” (priority 2004, published 2007).

How the values were obtained:
Pyrenophora teres = experiment: Activity against net blotch of barley caused by Pyrenophora teres, 1 day protective application; type: in vivo, Pyrenophora [syn. Drechslera] teres; details: barley seedlings cultivar Hanna, inoculated 24 hours after treatment
Experimental: (§1) The active compounds, separately or jointly, were prepared as a stock solution comprising 0.25% by weight of active compound in acetone or DMSO. 1% by weight of the emulsifier Uniperol® EL (wetting agent having emulsifying and dispersant action based on ethoxylated alkylphenols) was added to this solution, and the mixture was diluted with water to the desired concentration.
Leaves of potted barley seedlings of the cultivar “Hanna” were sprayed to runoff point with an aqueous suspension having the concentration of active compound stated below. 24 hours after the spray coating had dried on, the test plants were inoculated with an aqueous spore suspension of Pyrenophora [syn. Drechslera] teres, the net blotch pathogen. The test plants were then placed in a greenhouse at temperatures between 20 and 24° C. and at 95 to 100% relative atmospheric humidity. After 6 days, the extent of the development of the disease was determined visually in % infection of the entire leaf area.
(§2) Evaluation was carried out analogously to example 1.

Venturia inaequalis = experiment: Activity against scab on apple leaves caused by Venturia inaequalis, protective application; type: in vivo; details: inoculated 12 days after treatment
Experimental: as §1
Leaves of apples were sprayed to runoff point with an aqueous suspension having the concentration of active compound stated below. After 12 days, the treated plants were inoculated with an aqueous spore suspension of Venturia inaequalis. The apples were then initially placed in a water-vapor-saturated chamber at 24° C. for 48 hours and then in a greenhouse at temperatures between 20 and 24° C. for 20 days. The extent of the development of the infection on the upper sides of the leaves was then determined visually.
The visually determined percentages of infected leaf areas were converted into efficacies in % of the untreated control:
The efficacy (E) is calculated as follows using Abbot's formula: E=(1−α/β)[…] α corresponds to the fungal infection of the treated plants in % and β corresponds to the fungal infection of the untreated (control) plants in % An efficacy of 0 means that the infection level of the treated plants corresponds to that of the untreated control plants; an efficacy of 100 means that the treated plants were not infected.
The expected efficacies of mixtures of active compounds were determined using Colby's formula (Colby, S. R. “Calculating synergistic and antagonistic responses of herbicide Combinations”, Weeds, 15, 20-22, 1967) and compared with the observed efficacies.
Colby's formula: E=x+y−x·y/100
E expected efficacy, expressed in % of the untreated control, when using the mixture of the active compounds A and B at the concentrations a and b x efficacy, expressed in % of the untreated control, when using the active compound A at the concentration a y efficacy, expressed in % of the untreated control, when using the active compound B at the concentration b

Plasmopara viticola = experiment: Activity against peronospora of grapevines caused by Plasmopara viticola, 9 day protective application; type: in vivo; details: potted vines, inoculated 9 days after treatment
Experimental: as §1
Leaves of potted vines were sprayed to runoff point with an aqueous suspension having the concentration of active compound stated below. To be able to assess the persistency of the substances, the plants were, after the spray coating had dried on, placed in a greenhouse for 9 days. Only then were the leaves inoculated with an aqueous zoospore suspension of Plasmopara viticola. The grapevines were then initially placed in a water-vapor-saturated chamber at 24° C. for 48 hours and then in a greenhouse at temperatures between 20 and 30° C. for 5 days. After this time, the plants were again placed in a humid chamber for 16 hours, to promote sporangiophore eruption. The extent of the development of the infection on the undersides of the leaves was then determined visually.
as §2

Structure (SMILES)	Efficacy in % of the untreated control (Pyrenophora teres; 3.1 ppm in the spray liquor)	Efficacy in % of the untreated control (Venturia inaequalis; 50 ppm in the spray liquor)	Efficacy in % of the untreated control (Plasmopara viticola; 50 ppm in the spray liquor)	also measured
CC1CCN(c2c(-c3c(F)cc(F)cc3F)c(Cl)nc3ncnn23)CC1 [I-1, 5-chloro-7-(4-methylpiperidin-1-yl)-6-(2,4,6-trifluorophenyl)-[1,2,4]triazolo[1,5-a]pyrimidine]	66%	48%	25%	Efficacy in % of the untreated control (Venturia inaequalis; 25 ppm in the spray liquor): 18%; Efficacy in % of the untreated control (Plasmopara viticola; 25 ppm in the spray liquor): 13%
C[N+](C)(C)CCCl [chlormequat chloride (IIc.1), chlormequat chloride]	0%			Efficacy in % of the untreated control (Pyrenophora teres; 6.3 ppm in the spray liquor): 0%
CC(=NNC(=O)Nc1cc(F)cc(F)c1)c1ncccc1C(=O)O [diflufenzopyr (III.1), 2-{1-[4-(3,5-difluorophenyl)semicarbazono]ethyl}nicotinic acid]				Efficacy in % of the untreated control (Pyrenophora teres; 0.031 ppm in the spray liquor): 0%
CCC(=O)C1=C([O-])CC(C(=O)[O-])CC1=O.[Ca+2] (stereo not drawn) [prohexadione-Ca (IIa.1), prohexadione-Ca]		4%	0%	Efficacy in % of the untreated control (Venturia inaequalis; 100 ppm in the spray liquor): 29%; Efficacy in % of the untreated control (Plasmopara viticola; 100 ppm in the spray liquor): 0%
